Results on five compounds are retold here after paper PMC9123836 (Bioorganic & Medicinal Chemistry, 2022).

For data set [1], the system named is LO2 cells. Put plainly: cytotoxicity against normal cells. The class given is cell-based, human. Particulars: at the 100 µM level; MTT, 72 h.
Data set [2] has as its target T1, α-glucosidase (Saccharomyces cerevisiae, UniProt P53341). The experiment in a line: enzyme kinetic study. The class given is biochemical. The following applies: Lineweaver-Burk plot.
Data set [3] concerns SARS-CoV-2 spike pseudovirus. Put plainly: organism not typed. The class given is cell-based.
Data set [4] addresses T1, α-glucosidase. The experiment in a line: in vitro α-glucosidase inhibitory activity. The class given is biochemical. Particulars: mean ± SD (n = 3); test concentration not given.

T1 sequence (P53341 whole entry): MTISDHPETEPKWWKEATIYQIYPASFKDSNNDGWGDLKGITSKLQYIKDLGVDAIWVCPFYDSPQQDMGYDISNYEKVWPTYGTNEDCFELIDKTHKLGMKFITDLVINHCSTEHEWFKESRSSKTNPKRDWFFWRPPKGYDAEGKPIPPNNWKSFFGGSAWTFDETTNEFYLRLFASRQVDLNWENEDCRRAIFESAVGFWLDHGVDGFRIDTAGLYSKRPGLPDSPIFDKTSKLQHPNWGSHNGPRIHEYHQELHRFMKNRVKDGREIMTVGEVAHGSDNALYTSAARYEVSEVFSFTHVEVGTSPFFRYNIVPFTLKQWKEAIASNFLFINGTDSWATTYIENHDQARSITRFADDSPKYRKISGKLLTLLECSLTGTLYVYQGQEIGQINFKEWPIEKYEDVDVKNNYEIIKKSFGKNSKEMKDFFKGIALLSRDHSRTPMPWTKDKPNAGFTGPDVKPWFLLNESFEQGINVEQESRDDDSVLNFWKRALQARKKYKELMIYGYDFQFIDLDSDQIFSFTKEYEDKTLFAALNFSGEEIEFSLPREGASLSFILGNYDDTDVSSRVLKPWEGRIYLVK

Regarding `C=CCc1cc(-c2cc(CC=C)c3oc(SCc4nnc(-c5cccc(C)c5)o4)nc3c2)c2oc(SCc3nnc(-c4cccc(C)c4)o3)nc2c1` [Compound 7l], in data set [1], the “survival rates of LO2 cells” value is “above 80%”. The “inhibition mode towards α-glucosidase” value in data set [2] is listed as “noncompetitive α-glucosidase inhibitor”.

Turning to `C=CCc1cc(CSc2nnc(-c3ccccc3)o2)c(O)c(-c2ccc(O)c(CC=C)c2)c1` [Compound 9a], the “survival rates of LO2 cells” value in data set [1] is “above 80%”. For the same compound, the “inhibition of SARS-CoV-2 pseudovirus entry” value in data set [3] (at 100 μM) is “almost completely inhibited”.

Take `C=CCc1cc(CSc2nnc(-c3cccnc3)o2)c(O)c(-c2ccc(O)c(CC=C)c2)c1` [Compound 9r]: the “survival rates of LO2 cells” value in data set [1] is on record as “above 80%”.

Take `Cc1cc(-c2ccc(/N=N/c3ccc4c(S(=O)(=O)O)cc(S(=O)(=O)O)c(N)c4c3O)c(C)c2)ccc1/N=N/c1ccc2c(S(=O)(=O)O)cc(S(=O)(=O)O)c(N)c2c1O` [Evans blue, reference compound]: the IC50 in data set [3] (HEK293, read-out: IC50 (µM) against pseudovirus entry) was found to be 22 ± 1.98 µM.

Turning to `C[C@H]1O[C@H](O[C@H]2[C@H](O)[C@@H](O)[C@@H](O[C@H]3[C@H](O)[C@@H](O)C(O)O[C@@H]3CO)O[C@@H]2CO)[C@H](O)[C@@H](O)[C@@H]1N[C@H]1C=C(CO)[C@@H](O)[C@H](O)[C@H]1O` (stereo partly shown) [acarbose], the “Inhibition rate (%)” value in data set [4] stood at 96.4 ± 0.5%.
